BindingDB's records for doi:10.1021/cb400452z (2013)

Columns and labels:
[1] = biological target: T1, 3-phosphoinositide-dependent protein kinase 1 (Homo sapiens, UniProt O15530); experiment: AlphaScreen Assay; conditions: pH 7.4; room temperature
T1 sequence (O15530 whole entry): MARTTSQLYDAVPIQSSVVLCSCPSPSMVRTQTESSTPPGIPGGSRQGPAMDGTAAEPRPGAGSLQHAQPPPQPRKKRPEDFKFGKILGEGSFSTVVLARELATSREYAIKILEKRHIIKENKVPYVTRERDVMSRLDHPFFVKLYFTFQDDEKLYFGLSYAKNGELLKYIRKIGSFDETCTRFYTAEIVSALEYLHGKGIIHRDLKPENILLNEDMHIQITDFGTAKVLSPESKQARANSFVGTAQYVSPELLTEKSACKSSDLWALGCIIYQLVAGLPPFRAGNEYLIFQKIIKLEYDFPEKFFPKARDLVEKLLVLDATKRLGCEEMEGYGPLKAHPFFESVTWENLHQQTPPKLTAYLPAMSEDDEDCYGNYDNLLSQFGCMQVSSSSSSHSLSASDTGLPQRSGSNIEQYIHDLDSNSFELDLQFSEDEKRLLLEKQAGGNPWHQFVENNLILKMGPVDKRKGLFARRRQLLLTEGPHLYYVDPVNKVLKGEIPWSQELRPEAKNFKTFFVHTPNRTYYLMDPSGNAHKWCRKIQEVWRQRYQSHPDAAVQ
Procedure: (§1) The AlphaScreen Assay (Perkin Elmer) was performed according to the manufacturer's protocol in 384-well microtiter plates. Incubations were performed in white 384-well microtiter plates containing 20uL of a reaction mix (50mM Tris-HCl pH 7.4, 100mM NaCl, 1mM dithiotreitol, 0.01% (v/v) Tween-20, 0.1% (w/v) BSA, 1mM DMSO, 100nM His-CaPkh2 or 100nM His-PDK1, 50nM Biotin-PIFtide, and the indicated concentrations of unlabeled PIF-tide or small compounds) and 5uL of beads. 5uL of beads solution containing nickel chelate-coated acceptor beads and streptavidin-coated donor beads (20ug/mL final concentrations) was added to the reaction mix. The reaction mix and the beads were incubated in the dark for 45 min at RT and the emission of light from the acceptor beads was measured in the EnVision reader (Perkin Elmer) and analyzed using the GraphPad Prism software.

[2] = biological target: T2, Serine/threonine-protein kinase PKH2 [1-944] (Candida albicans (strain SC5314 / ATCC MYA-2876), UniProt Q5A3P6); experiment: AlphaScreen Assay; conditions: pH 7.4
T2 construct: 1-944
T2 sequence (Q5A3P6 whole entry): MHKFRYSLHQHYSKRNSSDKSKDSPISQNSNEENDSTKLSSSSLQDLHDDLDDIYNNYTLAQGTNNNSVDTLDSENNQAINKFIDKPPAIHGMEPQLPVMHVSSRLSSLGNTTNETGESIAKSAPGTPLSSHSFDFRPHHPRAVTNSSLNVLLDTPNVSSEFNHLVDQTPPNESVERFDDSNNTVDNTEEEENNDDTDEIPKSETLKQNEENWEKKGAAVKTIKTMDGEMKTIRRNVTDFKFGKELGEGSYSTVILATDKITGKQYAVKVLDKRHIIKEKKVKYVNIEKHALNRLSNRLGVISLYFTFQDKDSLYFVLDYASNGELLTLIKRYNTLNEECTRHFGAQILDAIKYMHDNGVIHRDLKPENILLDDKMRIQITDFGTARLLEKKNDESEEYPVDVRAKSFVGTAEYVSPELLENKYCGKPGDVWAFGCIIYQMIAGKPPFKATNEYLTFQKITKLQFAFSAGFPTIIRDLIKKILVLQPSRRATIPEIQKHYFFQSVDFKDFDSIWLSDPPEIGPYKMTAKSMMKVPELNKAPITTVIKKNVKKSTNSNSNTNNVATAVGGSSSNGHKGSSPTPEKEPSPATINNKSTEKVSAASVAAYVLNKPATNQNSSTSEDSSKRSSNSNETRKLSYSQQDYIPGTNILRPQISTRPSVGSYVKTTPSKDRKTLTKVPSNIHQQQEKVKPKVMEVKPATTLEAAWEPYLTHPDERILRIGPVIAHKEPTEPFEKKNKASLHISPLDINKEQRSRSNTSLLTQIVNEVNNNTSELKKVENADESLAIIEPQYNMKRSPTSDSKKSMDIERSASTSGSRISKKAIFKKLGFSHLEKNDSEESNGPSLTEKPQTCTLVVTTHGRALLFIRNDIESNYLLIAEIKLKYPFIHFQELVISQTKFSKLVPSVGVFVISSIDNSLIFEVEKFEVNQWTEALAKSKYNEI
Procedure: as §1

[3] = biological target: T1, 3-phosphoinositide-dependent protein kinase 1; experiment: Protein Kinase Activity Assay; conditions: pH 7.4; 0 °C
Procedure: (§2) A 20ul mix containing 50mM Tris pH 7.5, 0.05mg/ml BSA, 0.1% β-mercaptoethanol, 10mM MgCl2, 100μM [γ-P32]ATP (5-50cpm/pmol), 0.003% Brij, 150-500ng PDK1 or CaPkh2, and T308tide (from 0.1 to 1mM) was pre-incubated at room temperature (22¿C) for 15 minutes. The kinase reaction was initiated by the addition of the ATP-Mg mixture, followed by the addition of 5μl phosphoric acid (final concentration 0.01%) to stop the reaction. The PDK1 activity assay was performed in a 96 well format and 4μl aliquots spotted on p81 phosphocellulose papers (Whatmann) using ep motion 5070 (Eppendorf), washed in 0.01% phosphoric acid, dried, and then exposed and analyzed using PhophoImager technology (FLA-9000 Starion, Fujifilm). The specific activity of CaPkh2 and PDK1 was estimated using 100μM T308tide.

[4] = biological target: T2, Serine/threonine-protein kinase PKH2 [1-944]; experiment: Protein Kinase Activity Assay; conditions: pH 7.4; 0 °C
Procedure: as §2

O=C(CC(c1ccccc1)C(C(=O)O)C(=O)O)c1ccc(Cl)cc1 (stereo not drawn) [PS182]
EC50 [1]: 26 µM
EC50 ([2]; room temperature): 66 µM

O=C(O)CSC(CC(=O)c1ccc(Cl)cc1)c1ccccc1Sc1ccc(Cl)cc1 (stereo not drawn) [PS77]
EC50 [2]: 44 µM
IC50 [3]: 38 µM
IC50 [4]: 17 µM

O=C(C[C@@H](c1ccccc1)C(C(=O)O)C(=O)O)c1ccc(C(F)(F)F)cc1
EC50 [1]: 39 µM
EC50 ([2]; room temperature): 60 µM

O=C(O)CSC(CC(=O)c1ccc(Cl)cc1)c1ccccc1 (stereo not drawn)
EC50 ([2]; room temperature): 85 µM
